Laboratory results: patent US20250387334A1, “Oxyanion azide-benzaldehyde acetal acid-degradable lipids” (The Regents of the University of California, priority 2023, published 2025)

Experiments:
[1] = Acid-catalyzed hydrolysis kinetics of model azido-acetal 4 and its reduced form 5; format: physicochemical
Excerpt: RD-LNPs are based upon the rapid hydrolysis of the azido-acetal linker at pH 6.0. We synthesized the model azido-acetal 4 and measured its acid-catalyzed hydrolysis rate before and after reduction to investigate whether reductive activation accelerates the hydrolysis kinetics of an azido-acetal. […] The azido-acetal has the stability needed for performing multi-step organic reactions and should enable the development of new materials that are hypersensitive to acidic conditions. […] In addition, the reduced azido-acetal hydrolyzes with a t1/2<30 minutes at pH 6.0 and has the hydrolysis kinetics needed to degrade in endosomes before trafficking to lysosomes occurs4. The two-step hydrolysis mechanism of the azido-acetal overcomes the stability problems preventing the development of rapidly hydrolyzing lipids and provides a general strategy for developing lipids and materials that rapidly hydrolyze at endosomal pHs.

[2] = DTT reduction kinetics of compound 4; format: physicochemical
[3] = Hydrolysis kinetics of compounds 1-3 and their reduced forms (plate reader, mass spectrum); format: physicochemical; settings: for compound detected in the buffer by mass spectrum: 6 hours; for half-life: buffer
Excerpt: Engineering PEG-lipids to rapidly hydrolyze in endosomes has the potential to generate LNPs that have high levels of PEGylation and also transfect cells efficiently^10, 19, 20. The PEG-lipid reduces LNP toxicity and enhances LNP diffusion through tissue. However, LNPs are currently made with 0.5-1.5 mole percent of the PEG-lipid because increasing PEGylation levels beyond these levels can have detrimental effects. For example, the PEG-lipid lowers endosomal disruption by preventing the mixing of the ionizable lipid with endosomal lipids^20, 21 and causes the formation of anti-PEG antibodies^22. LNPs made with acid-degradable PEG-lipids should transfect cells efficiently even at high levels of PEGylation because they will hydrolyze off the LNP after endocytosis and will be released from the LNP surface. In addition, the immunogenicity of PEG dramatically increases after conjugation to lipids, and acid-degradable PEG-lipids may also have lower immunogenicity than traditional PEG-lipids because they will rapidly generate free PEG after endocytosis^22, 23.

[4] = IL-22 protein; cited from earlier work

Question: What does the source list for `COC(=O)NCCOC(OCCNC(=O)OC)c1ccc(N=[N+]=[N-])cc1` [Compound 4]?
Answer: half-life ([1]; buffer, pH 4): 0.0567 ± 0.00133 h; half-life ([1]; buffer, pH 5): 0.619 ± 0.0115 h; half-life ([1]; buffer, pH 6): 8.57 ± 0.117 h; half-life ([1]; pH 7.4): 507 h; predicted hydrolysis half-life ([1]; pH 7.4): 21 days; hydrolysis after 6.5 hours ([1]; pH 7.4, 6.5 hours): under 1%; half-life ([2]; 10 mM DTT solution (chemical reduction), read-out: DTT reduction t1/2 (minute) 10 mM): 26.4 ± 3.37 min; half-life ([2]; 25 mM DTT solution (chemical reduction), read-out: DTT reduction t1/2 (minute) 25 mM): 14.2 ± 0.5 min; half-life ([2]; 50 mM DTT solution (chemical reduction), read-out: DTT reduction t1/2 (minute) 50 mM): 11.9 ± 1.85 min; half-life ([2]; 100 mM DTT solution (chemical reduction), read-out: DTT reduction t1/2 (minute) 100 mM): 7.21 ± 0.11 min

Question: Which results are given for `CC(C)CCC[C@@H](C)[C@H]1CC[C@H]2[C@@H]3CC=C4C[C@@H](OC(=O)NCCOC(OCC[N+](C)(C)C)c5ccc(N=[N+]=[N-])cc5)CC[C@]4(C)[C@H]3CC[C@]12C` (some centres unmarked) [Compound 3]?
Answer: compound detected in the buffer by mass spectrum ([3]; pH 4 and pH 5, 37° C.): nearly no compound 3 was detected; compound detected in the buffer by mass spectrum ([3]; pH 6 and pH 7.4, 37° C.): a large amount

Question: For `COCCOCCOCCOCCOCCOCCOCCOCCOCCOCCOCCOCCOCCOCCOCCOCCOCCOCCOCCOCCOCCOCCOCCOCCOCCOCCOCCOCCOCCOCCOCCOCCOCCOCCOCCOCCOCCOCCOCCOCCOCCOCCOCCOCCOCCOC(=O)NCCOC(OCCNC(=O)O[C@H]1CC[C@@]2(C)C(=CC[C@H]3[C@@H]4CC[C@H]([C@H](C)CCCC(C)C)[C@@]4(C)CC[C@@H]32)C1)c1ccc(N=[N+]=[N-])cc1` (some centres unmarked) [Compound 1], which half-life ([3]; pH 4.0, read-out: t1/2 (minute) pH 4.0) is on record?
Answer: Its half-life is 54.8 ± 3.89 min.

Question: What about the half-life ([3]; pH 5.0, read-out: t1/2 (minute) pH 5.0) of the same molecule?
Answer: Its half-life is 192 ± 28.3 min.

Question: And the half-life ([3]; pH 6.0, cell prints day, read-out: t1/2 pH 6.0)?
Answer: The half-life was 4280 min.

Question: And the half-life ([3]; pH 7.4, cell prints day, read-out: t1/2 pH 7.4 (converted))?
Answer: The half-life was 28500 min.

Question: With IL-22: soluble IL-22 protein, cytokine as the molecule, how does the circulation half-life [4] read?
Answer: Its circulation half-life is “under 2 hours”.
